Values belong to the compound of their own block, whether it stands above or below them.
Legend:
[1] = test system: Pseudomonas aeruginosa; assay: Antibiofilm activity against Pseudomonas aeruginosa PA14 assessed as inhibition of biofilm formation at 100 uM; type: functional; design: scale not given: the % may be the effect or the level left
[2] = Inhibition of Pseudomonas aeruginosa FabI
[3] = test system: Pseudomonas aeruginosa; assay: Antibiofilm activity against Pseudomonas aeruginosa PA14 assessed as inhibition of biofilm formation; type: functional, organism-based
[4] = test system: Pseudomonas aeruginosa; assay: Antibiofilm activity against Pseudomonas aeruginosa PAO1 assessed as inhibition of biofilm formation; type: functional, organism-based
[5] = Antagonist activity at Pseudomonas aeruginosa MvfR
[6] = Inhibition of quorum sensing system in Pseudomonas aeruginosa PAO1 assessed as decrease in pqsR expression by PCR analysis
[7] = Binding affinity to D-galactose (unknown origin) assessed as dissociation constant

SMILES: CCCCCCS(=O)(=O)NCCCc1c[nH]c(N)n1
Activity [1]: 42%

SMILES: Oc1cc(Cl)ccc1Oc1ccc(Cl)cc1Cl [TRICLOSAN]
IC50 [2]: 200 nM

SMILES: O=C[C@H](O)[C@@H](O)[C@@H](O)[C@H](O)CO [GALACTOSE]
Kd [7]: 87.5 µM

Other lines, results leading:

IC50 [3]: 530 nM
IC50 [4]: 5.6 µM
SMILES: C/C(=C\c1ccccc1)Cn1cc(CCCCCc2c[nH]c(N)n2)nn1

IC50 [5]: 2 nM
IC50 [6]: 2000 nM
SMILES: CCCCCCCc1[nH]c2ccc([N+](=O)[O-])cc2c(=O)c1C(N)=O

Source: ChEMBL document CHEMBL5257018, “Novel Strategies for the Treatment of Pseudomonas aeruginosa Infections” (J Med Chem, 2016)
